Experimental data from US10214495B2, “Anti-malarial agents” (MMV MEDICINES FOR MALARIA VENTURE, priority 2015, dated 2019).
Values after ≈ are worked out from the molar mass of the structure shown. Where two headings read alike, the source gives them in different places.

How the values were obtained:
[1] = Pharmacokinetics in rats (iv and oral); type: in vivo; conditions: rat; for Apparent T1/2 / Plasma Cl / Vd: 5.0 mg/kg iv
Description: Compounds of the invention were tested for their pharmacokinetics in rats according to the protocol below. Two different formulations were used to dose the compound of the invention as described in Table 3 below
Compound (1) was prepared for administration immediately prior to the experiment. The dose was prepared according to the average weight of the animals and an assumed volume of 350 μL of vehicle (IV) or 1000 μL of vehicle (oral). Volumes were adjusted io for each animal's individual weight to dose the compound at 5 mg/kg for the IV group (n=3 rats) and 20 mg/kg to the oral group (n=3). Water was supplied ad libitum, but animals were starved for 12 hours prior to dosing. Food was reinstated 5 hours post-dose.
The orally-treated animals were dosed by gavage with the drug introduced as a bolus. The IV-treated animals were anaesthetized and the drug was administered by infusion over a period of 2 minutes. Doses were staggered to allow for accurately timed sampling. Blood was collected at predetermined time-points to evaluate the kinetic profile over 24-48 hours. Blood sampling schedule, measured in hours post-dose, for the two groups of rats after the administration of Compound (1) are presented in Table 4 below:
Whole blood was collected via the tail vein into heparinised microcentrifugation tubes and stored on ice. Within 60 minutes of collection, samples were transferred to a freezer and stored at −80 ° C. until analysis was carried out via LC/MS/MS.
The extraction process was carried out on ice. To extract the drug for analysis, 30 μL of whole blood from each sample as well as from a series of standards and quality controls was transferred to a 96-well plate. A volume of 90 μL of cold methanol containing a suitable internal standard (approx. 60 ng/mL was added to each well and the plate was sealed and vortexed vigorously for 60 seconds to precipitate the proteins and release the compounds into the solvent). These were then centrifuged at 10000 G for 10 minutes to pellet the proteins and cellular debris, and the supernatant was transferred to a duplicate 96-well plate. The plate was transferred to the LC/MS/MS and held at 4° C. until all samples were injected onto the column.
LC/MS/MS analysis was carried out with 5 μL of each sample, using a method which was developed for simultaneous detection of compound (1) and the internal standard using a Phenomenex Hydro-RP column at 20° C. The mobile phase utilized acetonitrile containing 0.1% formic acid (v/v) as the organic component, and 0.1% (v/v) formic acid in water as the aqueous component. The mobile phase ran as a gradient at 400 μL/min, with the organic component increasing from 5% to 95% over 4 minutes before re-equilibration. The assay was calibrated over the range 2-6250 ng/mL (0.0056 μM-17.44 μM).

P. falciparum NF54 = assay: In vitro P. falciparum growth inhibition, sensitive NF54 strain; type: cell-based; conditions: Plasmodium falciparum, read-out: P. fal. NF54 IC50
Description: (§1) The ability of aminopyrazine derivatives according to the invention to kill P. falciparum parasites and/or to inhibit its proliferation is assayed through their ability to inhibit Plasmodium falciparum growth. Compounds were screened against multidrug resistant (K1) and sensitive (NF54) strains of P. falciparum in vitro as described by Vennerstrom et al. 2004, Nature, 430, 900-904.

hPI4KB = hPI4KB (Homo sapiens, UniProt Q9UBF8); assay: PI4KB lipid kinase ADP-Glo assay; type: biochemical; conditions: ATP 10 μM, PI substrate 50 μM
Description: The compounds of the invention were tested on their ability to inhibit the human PI4K kinase. The non-radiometric ADP-Glo™ Assay (Promega, Madison, Wis., USA) was used for measuring the activity of the PI4KB lipid kinase. All kinase assays were performed in 96-well half-area microtiter plates from Greiner Bio-One (Frickenhausen, Germany) in a 25 μl reaction volume. The reaction cocktail was pipetted in 3 steps in the following order:
10 μl of ATP solution (in assay buffer, see below)
5 μl of test sample in 10% DMSO
10 μl of enzyme/substrate mixture
PI4KB assay contained 50 mM HEPES-NaOH, pH 7.5, 1 mM EGTA, 100 mM NaCl, 0.03% CHAPS, 2 mM DTT, ATP, 10 μM, PI4KB kinase, 20 ng/25 μL, PI substrate 50 μM. and3 mM MnCl2.
The reaction cocktails were incubated at 30° C. for 40 minutes. The reaction was stopped with 25 μl ADP-Glo reagent per well. Plates were incubated for 40 minutes at room temperature, followed by addition of 50 μl kinase detection reagent per well and incubation for further 60 minutes at room temperature. Signal was measured with a microplate multilable reader (Victor2, Perkin Elmer, Boston, Mass., USA), in luminescence mode.
All assays were performed with a BeckmanCoulter Biomek 2000/SL robotic system. The median value of the counts (n=8) of each assay plate was defined as “low control”. This value reflects unspecific binding of radioactivity to the plate in the absence of a protein kinase but in the presence of the substrate. […]
As part of the data evaluation the low control value from a particular plate was subtracted from the high control value as well as from all 80 “compound values” of the corresponding plate. The residual activity (in %) for each well of a particular plate was calculated by using the following formula (i): Res. Activity (%)=100×[(cpm of compound−low control)/(high control−low control)] […]
The residual activities for each concentration and the compound IC50 values were calculated using Quattro Workflow V3.1.0 (Quattro Research GmbH, Munich, Germany; www.quattro-research.com). […]

P. falciparum K1 = assay: In vitro P. falciparum growth inhibition, multidrug resistant K1 strain; type: cell-based; conditions: Plasmodium falciparum, read-out: P. fal K1 IC50
Description: as §1

[2] = Kinetic solubility by HPLC; type: physicochemical; conditions: kinetic from dmso stock, room temperature
Description: Dilutions were prepared to a theoretical concentration of 200 μM (n=2) in phosphate buffered saline (PBS) pH 6.5 (in 2% DMSO), in 0.01 M HCl pH 2 (in 2% DMSO) and in biologically relevant gastrointestinal media, fasted state simulated intestinal fluid, FaSSIF (in 2% DMSO). Calibration curves (11-220 μM) were prepared in DMSO. All dilutions were equilibrated at room temperature and mixed for 2 hours on an orbital shaker. The concentration of the test compounds was determined by HPLC using a Kinetex C18 column (2.1 mm×50 mm, 2.6 μm) at a column temperature of 35° C. An injection volume of 5 μL was used with a mobile phase flow rate of 0.6 mL/min. The mobile phase gradient method was as follows in Table 1: […]
Mobile phase A: 0.1% formic acid in 5% acetonitrile/water (v/v) (pH 3.1)
Mobile phase B: 0.1% formic acid in acetonitrile (pH 3.1)
Compound concentration (x) in the PBS/FASSIF/HC1 samples was calculated from the peak area (y) in the UV chromatogram by extrapolation from a three point calibration curve using the relationship: y=ax+b, where a is the slope and b is the intercept. Solubility was reported in the range <5-220 μM.

[3] = FaSSIF pH 6.5, 2% DMSO, read-out: Kinetic Solubility Fassif pH6.5
[4] = phosphate buffered saline, aqueous buffer, PBS pH 6.5, 2% DMSO, read-out: Kinetic Solubility pH 6.5
[5] = 20.0 mg/kg po vs 5.0 mg/kg iv (Reference 1 column prints iv)

hPI4KB, sequence (Q9UBF8 whole entry): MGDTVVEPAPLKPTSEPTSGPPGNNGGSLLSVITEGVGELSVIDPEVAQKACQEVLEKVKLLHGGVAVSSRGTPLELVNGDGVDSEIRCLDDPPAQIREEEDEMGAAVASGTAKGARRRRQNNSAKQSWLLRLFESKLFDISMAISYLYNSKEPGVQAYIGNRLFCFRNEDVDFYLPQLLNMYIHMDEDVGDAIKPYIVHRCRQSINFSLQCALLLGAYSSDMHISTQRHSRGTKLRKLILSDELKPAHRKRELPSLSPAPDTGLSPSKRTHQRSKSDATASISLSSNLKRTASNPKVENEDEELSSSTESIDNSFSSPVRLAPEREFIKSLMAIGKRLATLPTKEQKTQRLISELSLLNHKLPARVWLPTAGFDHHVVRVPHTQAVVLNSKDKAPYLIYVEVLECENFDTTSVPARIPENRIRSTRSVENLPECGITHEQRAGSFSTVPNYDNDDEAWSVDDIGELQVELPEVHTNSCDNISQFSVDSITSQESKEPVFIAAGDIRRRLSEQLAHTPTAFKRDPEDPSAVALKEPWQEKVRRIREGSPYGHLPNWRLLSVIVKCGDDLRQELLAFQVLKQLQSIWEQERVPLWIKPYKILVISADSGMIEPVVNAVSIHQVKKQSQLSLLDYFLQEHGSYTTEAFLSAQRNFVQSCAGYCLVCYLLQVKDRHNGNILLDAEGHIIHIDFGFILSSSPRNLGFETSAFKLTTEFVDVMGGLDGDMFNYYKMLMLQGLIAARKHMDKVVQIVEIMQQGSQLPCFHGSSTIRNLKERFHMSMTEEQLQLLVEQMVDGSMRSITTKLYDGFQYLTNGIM

| SMILES | Apparent T1/2 [1] [h] | Plasma Cl [1] [mL/min/kg] | Vd [1] [L/kg] | Oral Bioavailability ([1]; […] po vs 5.0 mg/kg iv) [%] | IC50 (P. falciparum NF54) [nM] | IC50 (hPI4KB) [µM] | IC50 (P. falciparum K1) [nM] | solubility kinetic at 2 h [2, 3] [µM] | solubility kinetic at 2 h [2, 4] [µM] | Oral Bioavailability [1, 5] [%] |
| --- | --- | --- | --- | --- | --- | --- | --- | --- | --- | --- |
| Nc1ncc(-c2ccc(C(=O)O)cc2)nc1-c1ccc(C(F)(F)F)cc1 [Compound (1), 4-(5-amino-6-(4-(trifluoromethyl)phenyl)pyrazin-2-yl)benzoic acid] | 4.9 | 10.1 | 4.3 | 94 | 33 | 7.7 | 32 | 178 (≈ 64 µg/mL) | 180 (≈ 64.7 µg/mL) |  |
| Nc1ncc(-c2ccc(C(=O)O)cc2)nc1-c1ccc(C(F)(F)F)nc1 [Compound (2), 4-(5-amino-6-(6-(trifluoromethyl)pyridin-3-yl)pyrazin-2-yl)benzoic acid] | 4.4 | 16.7 | 6.4 |  | 26 | 23 | 24 | 199 (≈ 71.7 µg/mL) | 187 (≈ 67.4 µg/mL) | 38 |
| NC(=O)c1ccc(-c2cnc(N)c(-c3ccc(C(F)(F)F)cc3)n2)cc1 [Reference 1, reference compound] | 1.0 | 39 | 3.5 |  | 13 | 5 | 14 | 115 (≈ 41.2 µg/mL) | < 5 | 25 |
